Literature values, collected in patent publication US11179353B1, “Composition and method for prevention and treatment of radiation dermatitis” (Rythera Therapeutics, Inc., priority 2020, dated 2021).

Legend:
irradiated breast tissue = conditions: topical
radiation skin damage = conditions: retrospective analysis

| Structure (SMILES) | improvement in the results of irradiated breast tissue (irradiated breast tissue) | dermato-cytoprotective effects (radiation skin damage) |
| --- | --- | --- |
| O=C1O[C@H]([C@@H](O)CO)C(O)=C1O [Vitamin C] | without improvement |  |
| NCCCNCCSP(=O)(O)O [amifostine] |  | significant dermato-cytoprotective effects |
